Reference: a melting point compilation (Tetko et al.; mined from patent text by program, amines drawn as free bases though some values may be those of a salt)

SMILES | melting point
FC(F)(F)c1cccc(N2CCN(Cc3n[nH]c4c(Cl)cccc34)CC2)c1 | 133 to 134 °C
O=C(O)CCCCCCCCCCc1cccs1 | 41 to 42 °C
COC(=O)c1cc(CS(=O)c2ccccc2)cnc1C1=NC(C)(C(C)C)C(=O)N1 (stereo unspecified) | 132 to 136 °C
O=C(N[C@H](Cc1ccc(C(F)(F)F)o1)[C@@H](O)c1ccc(F)cc1)c1ccc(F)c2ccccc12 (racemic) | 153 to 154 °C
C=CS(=O)(=O)c1ccc(NC(C)=O)cc1 | 122 °C
c1ccc(Nc2ccnc3cn[nH]c23)cc1 | 222 to 224 °C
CCCCC#CC#CCOc1ccc(C(=O)O)cc1 | 165 to 166 °C
O=C(Nc1cccc(Cl)c1)c1nc(-c2ccccc2)c2ccccc2c1O | 195 to 197 °C
COCCOc1ccc2c(Nc3ccc(Cl)cc3Cl)c(C#N)cnc2c1 | 144 to 145 °C
O=C1N(Cc2ccccn2)c2ccccc2C12COc1ccc3nonc3c12 (stereo unspecified) | 180 to 182 °C
O=C(Nc1ccccc1)C(=O)N1CCC(Cc2ccccc2)CC1 | 125 to 128 °C
N#Cc1ccc(C2=NOC(CO)C2)c2ccccc12 (stereo unspecified) | 138 to 139 °C
CCSc1nsc(NC(=O)Oc2ccccc2)c1C#N | 223 to 225 °C
O=C(O)c1cn(-c2ccc(F)cc2F)c2c(F)c(F)c(F)c(F)c2c1=O | 250 to 252 °C
CSc1ccc(NC(C#N)c2ccc(C)cc2)cc1 (stereo unspecified) | 186 to 187 °C
Oc1nn(-c2ccccc2)nc1Cl | 135 to 140 °C
O=C1c2ccccc2N(Cc2ccccc2)C2=NCCN12 | 203 to 205 °C
OC(CCCN1CC=C(c2cc(C(F)(F)F)on2)CC1)c1ccc(F)cc1 (stereo unspecified) | 120 to 122 °C
CCOC(=O)c1c(Cn2cncn2)nc2cc3c(cc2c1-c1ccc(OC)c(OC)c1)OCCO3 | 138 to 140 °C
CSCCC1(C)CCc2c(C)c(O)c(C)c(C)c2O1 (stereo unspecified) | 66.5 to 67 °C
OCCC12CC(c3ccccc31)c1ccccc12 | 99 to 100 °C
N#CCNC(=O)C1(NC(=O)c2ccc(N3CCN(C(=O)OCC4c5ccccc5-c5ccccc54)CC3)cc2)CCCCC1 | 192 to 194 °C
CC(=O)OCC(=O)Nc1cccc(Cl)c1C#N | 109 to 110 °C
O=C1Cc2cc(-c3cccc(Cl)c3)ccc2N1 | 169 to 171 °C
CCc1c(-c2ccncn2)ssc1=S | 100 to 102 °C
Cc1csc(-c2nnc(NC(C)c3ccccc3)c3ccccc23)c1 (stereo unspecified) | 118 to 121 °C

SMILES | melting point
COc1ccc2c(C)c(Cl)ccc2c1C(F)(F)F | 102 to 103 °C
Cc1cc(S(=O)(=O)N(CC(N)=O)c2ccc(Cl)cc2Cc2cc(F)ccc2F)c(C)cc1Cl | 170 °C
CN1CCCC(OC(=O)Nc2ccc(F)cc2)C1 (stereo unspecified) | 97 to 98 °C
CCOP(=O)(OCC)C(c1ccc2cc(O)ccc2c1)P(=S)(OCC)OCC (stereo unspecified) | 85.5 to 86.5 °C
O=C(O)CCC(=NOCc1ccc(OCc2coc(-c3ccccc3)n2)cc1)c1ccccc1 | 144 to 145 °C
Cc1ccc(S(=O)(=O)ON=C2C3=C(C=C4OCCC42)CCCO3)cc1 (stereo unspecified) | 118 °C
CCC(=O)/C=C/c1c([N+](=O)[O-])ccc2c1OC(COS(=O)(=O)c1ccc(C)cc1)CO2 (stereo unspecified) | 114 °C
Clc1ccc(CC(Cn2cncn2)Cn2cncn2)cc1 | 107 to 108 °C
COCCNC(=O)c1cc(F)cc(-c2cccc3cc(Cc4ccc(F)c(Cl)c4)sc23)c1 | 108 to 109 °C
CCc1cc(-c2ccccc2)nn1-c1ccc([N+](=O)[O-])cc1 | 112 to 113 °C
CCc1cc(C)cc(CC)c1C1C(=O)CC(CC(C)S(=O)CC)CC1=O (stereo unspecified) | 58 to 61 °C
Cc1ccc(-c2[nH]nc(COCCCO)c2-c2ccc(S(N)(=O)=O)cc2)cc1 | 85 to 86 °C
COc1cccc2c1C(=O)c1c(OC)cc(-c3nc4ccccc4n3C)cc1C2=O | 283 to 284 °C
CC(C)n1c(=O)n(C(=O)NC2CCN(C)CC2)c2ccccc21 | 204 to 205 °C
Cc1[nH]cc(C#N)c1-c1ccc(Cl)cc1C(=O)c1ccccc1Cl | 206 to 208 °C
CC(C)(C)OC(=O)C1CCCN(C(=O)OCc2ccccc2)N1C(=O)C(Br)CCBr (stereo unspecified) | 81 to 82 °C
COCCCS(=O)(=O)NC(=O)CCc1cc(OCC2CC2)nn1Cc1ccc(C(F)(F)F)cc1Cl | 152 to 154 °C
CCCC[C@H](NC(=O)[C@H](CC(C)C)NC(=O)COc1ccc(OC)cc1)C(=O)CSCc1ccco1 | 86 to 88 °C
Cc1ccc([N+](=O)[O-])cc1S(=O)(=O)n1ccnc1C | 159 to 161 °C
CCN1C(=O)CN(C(=O)C(F)(F)F)Cc2cc(OC)c([N+](=O)[O-])cc21 | 128 to 129 °C
COC(=O)c1ccc(C(=O)N2CCN(c3ncccc3NC(C)C)CC2)cc1 | 116 to 118 °C
CC(=O)c1cc(N=c2cc(C)n(C)c(N)n2)cc(C(C)=O)c1 | 219 to 220 °C
FC(F)(F)c1ccc(-c2cc(C(F)(F)F)n3cnc(-c4ccncc4)c3n2)cc1C(F)(F)F | 211 °C
Cc1ccc(C(=O)NC(NC(=S)Nc2cccc(F)c2F)C(F)(F)F)cc1 (stereo unspecified) | 210 to 211 °C
CSc1nc(NCCC(C)C)c2ccnc-2[nH]1 | 157 to 158 °C
OC1CSC(Oc2cncc(-c3cncnc3)c2)C(O)C1O (stereo unspecified) | 196 °C

SMILES | melting point
O=C=Nc1ccc(OC(=O)COCCOCC(=O)Oc2ccc(N=C=O)cc2)cc1 | 139 to 142 °C
O=C(Nc1nccs1)c1ccc(-c2ccc3nnn(Cc4ccc5ncccc5c4)c3n2)cc1F | 204 to 206 °C
Cc1ccccc1OCCCc1oc(-n2ccnc2C)nc1-c1ccc(Cl)cc1 | 111 to 112 °C
CP(=O)(CCC(=O)O)CCC(=O)O | 172 to 174 °C
O=S(=O)(OCC1OC2CC(CC(OS(=O)(=O)c3ccc(Br)cc3)C2)O1)c1ccc(Br)cc1 (stereo unspecified) | 128 °C
COC(=O)c1ccc(CBr)c2occc12 | 73 to 80 °C
FC(F)(F)c1n[nH]c2ccccc12 | 104 °C
O=[N+]([O-])c1ccc2c(c1)CN1C(=S)SC[C@@H]1C2 | 182 °C
CC(=O)Nc1cc(C(C)(C)C)c(Cl)cc1CN(C)C1CCCCC1 | 174 to 176 °C
CCCCN1CCC(CNC(=O)c2ccc(N)n3cc(-c4ccccc4)nc23)CC1 | 221 °C
COC(=O)CCc1cc(C(=O)c2ccccc2Cl)c(N)s1 | 89 to 90 °C
CC(C)(C)c1cc(SCc2ccc(C#N)cc2)cc(C(C)(C)C)c1O | 143 to 145 °C
CC1CC2Oc3ccc(Cl)cc3C(=O)N2O1 (stereo unspecified) | 147 to 151 °C
CC(C)Cn1c(C(O)c2ccccc2)nc2cnc3ccccc3c21 (stereo unspecified) | 160 to 166 °C
O=C1C=C(c2c[nH]c3ccc(O)cc23)C(=O)N1 | 292 to 298 °C
CCCCCCc1c(C(C)C)nc(C(C)C)c(CO)c1-c1ccc(F)cc1 | 93 to 95 °C
CCN(C(C)=O)c1cccc(-c2ccn3ncc(C#N)c3n2)c1 | 194 to 196 °C
COc1cc(OC)c(OC)cc1CN1CCc2cc(OCc3ccccc3)c(OC)cc2C1 | 110 to 111 °C
COC1(C)CN(c2ccc([N+](=O)[O-])cc2F)C1 | 110 to 111 °C
CCCCCCCCCCCCCCCCCCNC(=O)OCC1(CNS(=O)(=O)CCCI)CCCO1 (stereo unspecified) | 66.5 to 67.5 °C
CN(C)CCOc1c2c(nc3ccccc13)C(C)(C)OC2 | 92 to 93 °C
Cc1cc(Nc2ncnc3ccn(CCNC(=O)C(C)(C)C)c23)ccc1Oc1cccc2sncc12 | 189 to 191 °C
COC/C(=N/O)c1ccc(Sc2cc(F)cc(C3(OC)CCOCC3)c2)cc1 | 155 °C
Fc1cccc(F)c1COCc1nc2ccccc2n1Cc1c(F)cccc1F | 109 °C
Fc1ccc(C(c2ccc(OCc3ccccc3)cc2)C(c2ccccc2)C(F)(F)F)cc1 (stereo unspecified) | 111 to 114 °C
CC(C)=COc1ccc2c(C)cc(=O)oc2c1C(=O)C=Cc1cccnc1 | 156 to 157 °C

SMILES | melting point
COc1c(O)ccc2c1OCC2=O | 160 °C
COC(=O)c1ccc(-c2ccc3cc(OCc4ccccc4)c(C45CC6CC(CC(C6)C4)C5)cc3c2)cc1 | 170 to 173 °C
BrCc1cccc2c(-c3ccccc3)c(Br)oc12 | 135 to 138 °C
CCOC(=O)C(C)NC(=O)N(N(CCCl)S(C)(=O)=O)S(C)(=O)=O (stereo unspecified) | 111 to 112 °C
CNC(=O)N1CCc2[nH]cnc2C1c1cccs1 (stereo unspecified) | 230 °C
Cc1c(-c2ccc(O)cc2)sc(C=NO)c1-c1ccc(O)cc1 | 233 to 234 °C
Cc1cc(C#N)cc(C(=O)Nc2ccc(F)cn2)n1 | 204 °C
O=C1Nc2ccccc2C1=C(c1ccc(Cl)cc1)c1ccc(Cl)cc1 | 206 to 208 °C
CCC1C(C)=NN=C(c2ccc(O)c(O)c2)c2cc(O)c(O)cc21 (stereo unspecified) | 250 to 251 °C
COc1cc(C2CCN(C(=O)C(C)(C)N)CC2)ccc1Nc1ncc2ccc(-c3ccccc3N(C)S(C)(=O)=O)n2n1 | 92 to 100 °C
CC(C)c1cccc(C(C)C)c1NC(=O)NC1COc2ccccc2C1 (stereo unspecified) | 186 to 188 °C
C=CCn1c(Cc2ccccc2)c(CC)c(=O)[nH]c1=O | 164 to 165 °C
CC(=O)C=Cc1cccc(N(C)C)c1 | 47 to 49 °C
CN1C(=O)C(NC(=O)Nc2ccc([N+](=O)[O-])cc2)N=C(c2ccccc2)c2ccccc21 (stereo unspecified) | 292 to 293 °C
COC(=O)[C@@H]1OC(c2ccc(O)c(OC)c2)O[C@H]1C(=O)OC | 88 to 90 °C
CSc1ccc(C)c2onc(OCCNC(=O)OC(C)(C)C)c12 | 85 to 86 °C
COc1cc2onc(-c3ccccc3F)c2cc1Cl | 165 to 166 °C
CC1CCNC1=C[N+](=O)[O-] (stereo unspecified) | 47 to 47.5 °C
N#CC(NC(=O)c1cccn2c(Cl)cnc12)c1ccco1 (stereo unspecified) | 142 to 143 °C
OCC1OC(n2cnc3c(NCC(c4ccc(Cl)cc4)c4ccc(Cl)cc4)ncnc32)C(O)C1O (stereo unspecified) | 95 to 120 °C
O=C(O)Cc1ccc(NC(=O)C(COc2ccccc2Cl)NS(=O)(=O)c2ccc(Cl)cc2)cc1 (racemic) | 190 to 191 °C
O=C(C1CCN(S(=O)(=O)c2ccc(Br)cc2)CC1)N1CCC(c2ccncc2)CC1 | 154 to 155 °C
C[Si](C)(C)c1sccc1NC=O | 74 to 76 °C
